Data: patent publication US8278032B2, “Transporter protein in mammal and utilization of the same” (priority 2005, dated 2012)
Read-outs that look alike come from different tables or passages of the source.

Key:
[1] = target: T1, mMATE1 (Mus musculus, UniProt Q8K0H1); assay: Inhibition of RI-labeled TEA uptake in HEK293 cells expressing mMATE1; type: cell-based;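 also: transfected HEK293 cells held 5 min at 37 °C before tracer addition, uptake read as radioactivity retained on a 0.45-µm membrane filter, mean ± SD of three to nine experiments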
T1 construct: expressed in transfected cells; host or cells: HEK293
T1 sequence (Q8K0H1 with tags, fused parts or gaps): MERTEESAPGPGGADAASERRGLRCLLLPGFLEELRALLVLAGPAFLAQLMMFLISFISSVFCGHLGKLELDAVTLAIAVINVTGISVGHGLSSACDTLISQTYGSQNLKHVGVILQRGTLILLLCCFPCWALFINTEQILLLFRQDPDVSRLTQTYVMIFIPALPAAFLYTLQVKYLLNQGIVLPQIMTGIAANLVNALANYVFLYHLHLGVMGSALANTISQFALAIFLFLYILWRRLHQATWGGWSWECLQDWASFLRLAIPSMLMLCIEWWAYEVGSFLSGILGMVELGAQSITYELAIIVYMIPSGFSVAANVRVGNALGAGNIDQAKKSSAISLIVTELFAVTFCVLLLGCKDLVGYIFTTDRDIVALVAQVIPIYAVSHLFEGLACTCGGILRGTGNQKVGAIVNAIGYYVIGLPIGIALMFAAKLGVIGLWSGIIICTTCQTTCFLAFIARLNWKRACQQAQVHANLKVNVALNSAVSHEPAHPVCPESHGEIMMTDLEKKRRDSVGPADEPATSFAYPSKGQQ

[2] = target: T2, hMATE1 (Homo sapiens, UniProt Q96FL8); assay: Inhibition of RI-labeled TEA uptake in HEK293 cells expressing hMATE1; conditions: for Inhibition of TEA uptake activity (in words, summary of Table 1): MATE1 expressing HEK293 cells, 50 μM TEA, pH 8.0
T2 sequence (Q96FL8 1-570): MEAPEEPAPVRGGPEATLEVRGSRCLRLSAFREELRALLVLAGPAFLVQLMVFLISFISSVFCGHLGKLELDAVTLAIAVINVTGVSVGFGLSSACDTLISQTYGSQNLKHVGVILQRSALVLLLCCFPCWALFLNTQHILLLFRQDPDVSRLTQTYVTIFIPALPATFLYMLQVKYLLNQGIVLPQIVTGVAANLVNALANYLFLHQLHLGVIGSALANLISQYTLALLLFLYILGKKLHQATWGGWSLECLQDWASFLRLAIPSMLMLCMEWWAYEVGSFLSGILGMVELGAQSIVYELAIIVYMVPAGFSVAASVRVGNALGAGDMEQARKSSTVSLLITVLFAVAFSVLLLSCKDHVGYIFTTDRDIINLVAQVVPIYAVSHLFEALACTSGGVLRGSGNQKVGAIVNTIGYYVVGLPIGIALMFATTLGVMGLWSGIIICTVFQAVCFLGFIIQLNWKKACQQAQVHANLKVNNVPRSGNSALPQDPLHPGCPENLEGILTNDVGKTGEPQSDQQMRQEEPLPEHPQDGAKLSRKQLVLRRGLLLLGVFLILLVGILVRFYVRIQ

[3] = target: T2, hMATE1; conditions: radioactive nicotine 2 μM, FIG. 10
[4] = target: T2, hMATE1; conditions: read-out: Km value of transport; substrate transport, cells expressing wild type MATE1 (TEA: FIG. 9(c)); MPP: MATE1, species not stated
[5] = target: T2, hMATE1; conditions: 1 mM 14C-TEA, pH of extracellular fluid varied, FIG. 12
[6] = compound 0.1 mM, 50 μM RI-labeled TEA, pH 8.0, HEK293 cells expressing mMATE1, read-out: TEA uptake activity percent taking the level with addition of no compound as 100% (% ± S.D.)
[7] = compound 0.1 mM, 50 μM RI-labeled TEA, pH 8.0, HEK293 cells expressing hMATE1
[8] = compound 5 mM, 50 μM RI-labeled TEA, pH 8.0, HEK293 cells expressing hMATE1
[9] = HEK293, pH 8, read-out: TEA uptake activity percent taking the level with addition of no compound as 100% (% ± S.D.)
[10] = compound 0.01 mM, 50 μM RI-labeled TEA, pH 8.0, HEK293 cells expressing hMATE1
[11] = compound 10 mM, 50 μM RI-labeled TEA, pH 8.0, HEK293 cells expressing mMATE1
[12] = compound 10 mM, 50 μM RI-labeled TEA, pH 8.0, HEK293 cells expressing hMATE1
[13] = compound 5 mM, 50 μM RI-labeled TEA, pH 8.0, HEK293 cells expressing mMATE1

CN1CCCC1c1cccnc1 (centres unmarked) [Nicotine]
remaining activity at 100 µM [1, 6]: 91.9 ± 3.1% | remaining activity at 5000 µM ([1]; compound 5 mM, 50 μM RI-labeled TEA, pH 8.0, HEK293 cells expressing mMATE1, read-out: TEA uptake activity percent taking the level with addition of no compound as 100% (% ± S.D.)): 36.7 ± 3.1% | Inhibition of TEA uptake activity (in words, summary of Table 1) [2]: mildly inhibited | TEA uptake activity percent taking the level with addition of no compound as 100% (% ± S.D.) [2, 7]: 63.7 ± 5.0% | TEA uptake activity percent taking the level with addition of no compound as 100% (% ± S.D.) [2, 8]: 5.8 ± 4.3% | Nicotine transport by MATE1 (in words) [3]: functioning as a nicotine transporter

CNC(=O)c1cccnc1 [NMN, N-methylnicotinamide]
remaining activity at 1000 µM ([1]; compound 1 mM, 50 μM RI-labeled TEA, pH 8.0, HEK293 cells expressing mMATE1, read-out: TEA uptake activity percent taking the level with addition of no compound as 100% (% ± S.D.)): 115 ± 8.9% | TEA uptake activity percent taking the level with addition of no compound as 100% (% ± S.D.) ([2]; compound 1 mM, 50 μM RI-labeled TEA, pH 8.0, HEK293 cells expressing hMATE1): 93.5 ± 1.9%

C[C@]12CC[C@H]3[C@@H](CCC4=CC(=O)CC[C@@]43C)[C@@H]1CC[C@@H]2O [Testosterone]
remaining activity at 1 µM [1, 9]: 67 ± 8.7% | remaining activity at 10 µM [1, 9]: 44.7 ± 3% | remaining activity at 100 µM [1, 9]: 11.5 ± 1.1% | Inhibition of TEA uptake activity (in words, summary of Table 1) [2]: inhibited | TEA uptake activity percent taking the level with addition of no compound as 100% (% ± S.D.) ([2]; compound 0.001 mM, 50 μM RI-labeled TEA, pH 8.0, HEK293 cells expressing hMATE1): 99.6 ± 4.3% | TEA uptake activity percent taking the level with addition of no compound as 100% (% ± S.D.) [2, 10]: 64.5 ± 14.7% | TEA uptake activity percent taking the level with addition of no compound as 100% (% ± S.D.) [2, 7]: 38.8 ± 3.2%

O=C(O)CCC(=O)O [Succinate]
TEA uptake activity percent taking the level with addition of no compound as 100% (% ± S.D.) [1, 11]: 95.1 ± 6.3% | TEA uptake activity percent taking the level with addition of no compound as 100% (% ± S.D.) [2, 12]: 108.1 ± 4.2%

N=C(N)N [Guanidine]
remaining activity at 500 µM ([1]; compound 0.5 mM, 50 μM RI-labeled TEA, pH 8.0, HEK293 cells expressing mMATE1, read-out: TEA uptake activity percent taking the level with addition of no compound as 100% (% ± S.D.)): 96 ± 8.5% | TEA uptake activity percent taking the level with addition of no compound as 100% (% ± S.D.) ([2]; compound 0.5 mM, 50 μM RI-labeled TEA, pH 8.0, HEK293 cells expressing hMATE1): 93.4 ± 7.6%

CC(=O)[C@H]1CC[C@H]2[C@@H]3CCC4=CC(=O)CC[C@]4(C)[C@H]3CC[C@]12C [Progesterone]
remaining activity at 100 µM [1, 6]: 9.3 ± 1.6% | Inhibition of TEA uptake activity (in words, summary of Table 1) [2]: inhibited | TEA uptake activity percent taking the level with addition of no compound as 100% (% ± S.D.) [2, 7]: 31.7 ± 5.6%

Nc1ccc(C(=O)NCC(=O)O)cc1 [PAH]
TEA uptake activity percent taking the level with addition of no compound as 100% (% ± S.D.) [1, 13]: 94.7 ± 9.1% | TEA uptake activity percent taking the level with addition of no compound as 100% (% ± S.D.) [2, 8]: 110.3 ± 2.7%

CC(O)C(=O)O (centres unmarked) [Lactate]
TEA uptake activity percent taking the level with addition of no compound as 100% (% ± S.D.) [1, 11]: 93.9 ± 3.2% | TEA uptake activity percent taking the level with addition of no compound as 100% (% ± S.D.) [2, 12]: 103.8 ± 8.8%

CC[N+](CC)(CC)CC [TEA, tetraethylammonium]
Km [4]: 220 µM | TEA uptake activity percent taking the level with addition of no compound as 100% (% ± S.D.) [1, 13]: 0.0 ± 7. % | TEA uptake activity percent taking the level with addition of no compound as 100% (% ± S.D.) ([2]; pH 8): 0.7 ± 1.8% | Uptake of TEA into liposome containing MATE polypeptide (in words) [5]: pH-dependent uptake of TEA was observed

CN/C(=N/CCSCc1nc[nH]c1C)NC#N [Cimetidine]
remaining activity at 10 µM ([1]; compound 0.01 mM, 50 μM RI-labeled TEA, pH 8.0, HEK293 cells expressing mMATE1, read-out: TEA uptake activity percent taking the level with addition of no compound as 100% (% ± S.D.)): 29.3 ± 5.2% | remaining activity at 100 µM [1, 6]: 3.1 ± 5.1% | Inhibition of TEA uptake activity (in words, summary of Table 1) [2]: strongly inhibited | TEA uptake activity percent taking the level with addition of no compound as 100% (% ± S.D.) [2, 10]: 44.7 ± 7.4% | TEA uptake activity percent taking the level with addition of no compound as 100% (% ± S.D.) [2, 7]: 9.7 ± 8.7%
